Assay results reported in US20230181768A1, “TISSUE-TARGETING COMPLEX” (PHARMPUR GMBH, priority 2017, published 2023).
Entries after “also recorded” stand apart in the source; their conditions may differ. Read-outs that look alike come from different tables or passages of the source.

How the values were obtained:
[1] = tested on: ILM model substrate (silk granules); settings: for binding to the model substrate (in words): UV/vis, before and after treatment with model substrate; for Ratio λmax with MS and reference 632-635 nm: 632 nm (7a), 634 nm (7b, 7d), 635 nm (7c)
Procedure: To examine the binding of various dyes to the ILM model substrate, UV/vis measurements of the dyes Brilliant Blue G (BBG), compounds 7a-d, and Indocyanine green (ICG) were performed at various concentrations both before and after treatment with the model substrate. The aim of these measurements is to compare the binding strength of the individual dyes.
Stock solutions of the dyes with a concentration of 5 mg/mL were prepared using phosphate-buffered saline (PBS) at physiological pH 7.4.
To ensure measurement is as accurate as possible, the dye-model substrate solutions and the references were not prepared separately, but likewise used as stock solutions.
Subsequently, 6 mg of ILM model substrate plus 6 mL of dye solution and a reference solution comprising only 6 mL of dye solution were stirred for exactly 10 minutes and then centrifuged together for 8 minutes at 6000 rpm. The solutions were photographed and the carefully decanted supernatants analyzed by UV/vis spectroscopy. The ratios of the absorption maxima λmax with the model substrate to the absorption maximum λmax of the reference were calculated. This allowed the binding strengths of the individual dyes to be compared.

[2] = Solubility / precipitation of dye in phosphate-buffered saline; type: physicochemical; settings: PBS
Text: Indocyanine green is one of the most important dyes in chromovitrectomy, particularly in the field of ILM peeling. The dye does, however, give rise to some problems and also to handling difficulties. Although it has long since been used for staining the inner limiting membrane and epiretinal membranes, studies have shown the dye to have numerous disadvantages.

Row | SMILES | binding to the model substrate (in words) [1] | Ratio λmax with MS and reference 588 nm ([1]; 0.005 mg/mL in PBS pH 7.4) [%] | Ratio λmax with MS and reference 632-635 nm ([1]; 0.005 mg/mL in PBS pH 7.4) [%] | Ratio λmax with MS and reference 588 nm ([1]; 0.01 mg/mL in PBS pH 7.4) [%] | Ratio λmax with MS and reference 632-635 nm ([1]; 0.01 mg/mL in PBS pH 7.4) [%] | Ratio λmax with MS and reference 588 nm ([1]; 0.02 mg/mL in PBS pH 7.4) [%] | Ratio λmax with MS and reference 632-635 nm ([1]; 0.02 mg/mL in PBS pH 7.4) [%] | Ratio λmax with MS and reference 588 nm ([1]; 0.04 mg/mL in PBS pH 7.4) [%] | Ratio λmax with MS and reference 632-635 nm ([1]; 0.04 mg/mL in PBS pH 7.4) [%] | Ratio λmax with MS and reference 588 nm ([1]; 0.08 mg/mL in PBS pH 7.4) [%] | Ratio λmax with MS and reference 632-635 nm ([1]; 0.08 mg/mL in PBS pH 7.4) [%] | Ratio λmax with MS and reference 588 nm ([1]; 0.16 mg/mL in PBS pH 7.4) [%] | Ratio λmax with MS and reference 632-635 nm ([1]; 0.16 mg/mL in PBS pH 7.4) [%] | other results
1 | CCOc1ccc(Nc2ccc(/C(=C3C=C/C(=[N+](/CC)Cc4cccc(S(=O)(=O)[O-])c4)C=C/3C)c3ccc(N(CC)Cc4cccc(S(=O)(=O)[O-])c4)cc3C)cc2)cc1.[Na+] [BBG, Brilliant Blue G, reference compound] | good binding | – | – | – | – | – | – | – | – | – | – | – | – | binding of the dye ([1]; 0.005 mg/mL in PBS pH 7.4): 76%; Ratio λmax with MS and reference ([1]; 0.005 mg/mL in PBS pH 7.4, maximum about 585 nm): 24%; Ratio λmax with MS and reference ([1]; 0.01 mg/mL in PBS pH 7.4, maximum about 585 nm): 32%; Ratio λmax with MS and reference ([1]; 0.02 mg/mL in PBS pH 7.4, maximum about 585 nm): 44%; Ratio λmax with MS and reference ([1]; 0.04 mg/mL in PBS pH 7.4, maximum about 585 nm): 48%; binding of the dye ([1]; 0.08 mg/mL in PBS pH 7.4): 48%; Ratio λmax with MS and reference ([1]; 0.08 mg/mL in PBS pH 7.4, maximum about 585 nm): 62%
2 | CCCCCCCCCC[N+](C)(C)CCCNc1ccc(NCCC[N+](C)(C)CCCCCCCCCC)c2c1C(=O)c1ccccc1C2=O [7c, N,N′=(((9,10-dioxo-9,10-dihydroanthracene-1,4-diyl)bis(azanediyl))bis(propane-3,1-diyl))bis(N,N-dimethyldecan-1-aminium) Bromide] | – | 48 | 37 | 21 | 17 | 7 | 7 | 4 | 5 | 8 | 10 | 13 | 17 | –
3 | CCCC[N+](C)(C)CCCNc1ccc(NCCC[N+](C)(C)CCCC)c2c1C(=O)c1ccccc1C2=O [7a, N,N′=(((9,10-dioxo-9,10-dihydroanthracene-1,4-diyl)bis(azanediyl))bis(propane-3,1-diy1))bis(N,N-dimethylbutan-1-aminium) bromide] | – | 54 | 54 | 52 | 52 | 54 | 55 | 57 | 58 | 67 | 69 | 76 | 78 | –
4 | CCCCCCCC[N+](C)(C)CCCNc1ccc(NCCC[N+](C)(C)CCCCCCCC)c2c1C(=O)c1ccccc1C2=O [7b, N,N′-(((9,10-dioxo-9,10-dihydroanthracene-1,4-diyl)bis(azanediyl))bis(propane-3,1-diyl))bis(N,N-dimethyloctan-1-aminium) bromide] | – | 11 | 9 | 10 | 8 | 6 | 6 | 8 | 8 | 18 | 19 | 32 | 34 | –
5 | CC1(C)C(/C=C/C=C/C=C/C=C2\N(CCCCS(=O)(=O)O)c3ccc4ccccc4c3C2(C)C)=[N+](CCCCS(=O)(=O)[O-])c2ccc3ccccc3c21 [ICG, Indocyanine green, reference compound] | positive binding | – | – | – | – | – | – | – | – | – | – | – | – | Ratio λmax with MS and reference ([1]; 0.005 mg/mL in double-distilled water, 779/780 nm): 47%; Ratio λmax with MS and reference ([1]; 0.01 mg/mL in double-distilled water, 779/780 nm): 95%; Ratio λmax with MS and reference ([1]; 0.02 mg/mL in double-distilled water, 779/780 nm): 42%; Ratio λmax with MS and reference ([1]; 0.04 mg/mL in double-distilled water, 779/780 nm): 85%; solubility in saline solutions / phosphate-buffered saline [2]: poor solubility; also recorded: causes the compound to precipitate
6 | CCCCCCCCCCCC[N+](C)(C)CCCNc1ccc(NCCC[N+](C)(C)CCCCCCCCCCCC)c2c1C(=O)c1ccccc1C2=O [7d, N,N′(((9,10-dioxo-9,10-dihydroanthracene-1,4-diyl)bis(azanediyl))bis(propane-3,1-diyl))bis(N,N-dimethyldodecan-1-aminium) Bromide] | – | 12 | 13 | 7 | 8 | 3 | 4 | 3 | 3 | 1 | 2 | 18 | 18 | –
